Patent US20140033367A1 (priority 2010, published 2014)

Tests used:
[1] = system: protoplasts from UT leaves; test: Protoplast culture with hormones or hormone conjugates, UT protoplasts; assay type: cell-based, Nicotiana tabacum; conditions: for Division Efficiency / Plating Efficiency: hormone concentration in mg L^−1
Experimental: (§1) To evaluate the effects of hormones or hormone conjugates on protoplast division, six hormones or conjugate combinations (Table IV) were tested in the protoplast culture.
(§2) The protocol of the protoplast isolation was modified from the method of Rao and Prakash (1995). Leaves from BGL-1 and UT were cut into small pieces and placed on the surface of the enzyme solution with the lower surface down. Incubation was carried out in the dark at a temperature of 25° C.±1° C. for 8 h to release the protoplasts. The enzymatic cocktail contained 2% (w/v) cellulase Onozuka R-10, 0.5% (w/v) macerozyme R-10, 0.2% (w/v) dextran potassium sulfate, 5 mm CaCl2.2H2O, and 0.7 m mannitol, pH 5.8. After removing undigested materials and digested debris by filtration through a […] steel mesh, the enzymatic mixture was centrifuged at 1,000 rpm for 10 min. The protoplasts were resuspended in 5 mL of washing medium, and the process was repeated three times. Protoplasts were cultured at a density of 2×10^5 mL^−1 in 5-cm petri dishes in 3 mL of culture medium (Rao and Prakash, 1995) supplemented with different hormone or conjugate hormone regimes (Table IV). The cultures were kept at 25° C. in the dark. After 7 d, fresh medium was added to each petri dish, and the addition of medium was repeated on the 11th d of culture. […] After the development of microcalli visible to the naked eye, the cultures were transferred to light.

[2] = system: protoplasts from BGL-1 leaves; test: Protoplast culture with hormones or hormone conjugates, BGL-1 protoplasts; assay type: cell-based, Nicotiana tabacum; conditions: for Division Efficiency / Plating Efficiency: BGL-1 protoplasts, hormone concentration in mg L^−1
Experimental: as §1, §2

Molecule | Division Efficiency [1] [%] | Plating Efficiency [1] [%] | Division Efficiency [2] [%] | Plating Efficiency [2] [%] | protoplast division and cell colony formation ([1]; zeatin-O-glucoside only) | increase of cell division efficiency of BGL-1 protoplasts compared with UT protoplasts ([2]; exogenously supplied zeatin-O-glucoside) [%]
C/C(=C\CNc1ncnc2[nH]cnc12)CO [Zeatin (1.0), Zeatin] | 6.8 ± 0.9 | 4.6 ± 0.3 | 10.6 ± 0.8 | 6.2 ± 0.4 |  | 
Naphthylacetic acid [Naphthylacetic acid (3.0)] | 4.8 ± 0.7 | 3.3 ± 0.2 | 9.1 ± 1.8 | 4.3 ± 0.5 |  | 
Zeatin-O-glucoside [Zeatin-O-glucoside (1.0)] | 0 | 0 | 7.5 ± 1.2 | 3.7 ± 0.3 | did not divide and form cell colonies | 670
